Bounds are passed on as bounds.

Chain of Polθ theta (1-899) (hPolQ) (O75417 1-899): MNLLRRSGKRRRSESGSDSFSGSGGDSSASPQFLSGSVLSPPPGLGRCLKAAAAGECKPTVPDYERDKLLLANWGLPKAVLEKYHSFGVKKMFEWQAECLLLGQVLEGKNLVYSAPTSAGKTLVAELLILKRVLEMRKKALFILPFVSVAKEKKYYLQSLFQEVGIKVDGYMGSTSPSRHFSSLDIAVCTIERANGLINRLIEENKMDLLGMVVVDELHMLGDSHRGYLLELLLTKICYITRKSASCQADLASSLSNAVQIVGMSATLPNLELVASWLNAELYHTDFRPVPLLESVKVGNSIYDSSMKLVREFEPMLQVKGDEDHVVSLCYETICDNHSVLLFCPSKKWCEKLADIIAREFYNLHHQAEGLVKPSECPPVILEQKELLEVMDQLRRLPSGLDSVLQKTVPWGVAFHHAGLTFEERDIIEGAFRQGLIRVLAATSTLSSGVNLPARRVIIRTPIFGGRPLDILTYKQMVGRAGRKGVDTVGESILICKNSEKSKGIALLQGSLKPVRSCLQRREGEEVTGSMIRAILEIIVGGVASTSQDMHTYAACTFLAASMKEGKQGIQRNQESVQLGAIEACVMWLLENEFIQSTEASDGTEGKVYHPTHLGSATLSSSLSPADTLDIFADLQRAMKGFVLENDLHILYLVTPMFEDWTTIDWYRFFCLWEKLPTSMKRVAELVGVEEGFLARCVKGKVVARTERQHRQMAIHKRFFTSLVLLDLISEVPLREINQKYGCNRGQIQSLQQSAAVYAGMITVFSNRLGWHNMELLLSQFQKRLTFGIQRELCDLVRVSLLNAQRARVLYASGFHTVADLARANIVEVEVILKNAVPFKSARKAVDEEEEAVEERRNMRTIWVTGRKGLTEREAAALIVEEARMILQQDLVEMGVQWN

The target of this assay is Polθ theta (1-899) (hPolQ) (Homo sapiens (Human), UniProt O75417). Put plainly: Biological Assay 1: Polθ ATPase activity, NADH oxidation-coupled enzymatic assay (10 nM enzyme, 30 min). The class given is biochemical. The settings on record: Polθ (1-899) 10 nM, 100 μM ATP, 300 nM dT50 ssDNA; Examples 1 to 268; read-out: ATPase NADH coupling:Standard Screening:hPolQ IC50. Put shortly:
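ATP turnover was coupled to NADH oxidation and followed at 340 nm every minute for 30 min. Enzyme (residues 1-899, 10 nM) sat with compound for 15 min at room temperature before an equal-volume addition of 100 μM ATP plus 300 nM dT50 ssDNA. Progress-curve slopes from 10-point dilutions were fitted by a four-parameter model.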
As to `COc1cccc(F)c1-c1cc(C)ncc1C(=O)Nc1nnc(OCC23CC(O)(C2)C3)s1` [Example 61, 4-(2-fluoro-6-methoxyphenyl)-N-(5-((3-hydroxybicyclo(1.1.1)pentan-1-yl)methoxy)-1,3,4-thiadiazol-2-yl)-6-methylnicotinamide], the half-inhibitory concentration (IC50) was not above 200 nM.

In the case of `COc1cnc(Cl)cc1-c1cc(C)ncc1C(=O)Nc1nnc(OCC2CCCC2O)s1` (centres unmarked) [Example 261, 2′-chloro-N-(5-((2-hydroxycyclopentyl)methoxy)-1,3,4-thiadiazol-2-yl)-5′-methoxy-6-methyl-(4,4′-bipyridine)-3-carboxamide], the IC50 is not above 200 nM. In the case of `COc1ccccc1-c1nc2cccnc2cc1C(=O)Nc1nnc(OCc2ccc(Cl)cn2)s1` [Example 9, N-(5-((5-chloropyridin-2-yl)methoxy)-1,3,4-thiadiazol-2-yl)-2-(2-methoxyphenyl)-1,5-naphthyridine-3-carboxamide] it was 1000 to 10000 nM; in that of `COc1cnc(Cl)c(F)c1-c1cc(C)ncc1C(=O)Nc1nnc(OC[C@H]2COCCO2)s1` [Example 240, N-(5-(((R)-1,4-dioxan-2-yl)methoxy)-1,3,4-thiadiazol-2-yl)-2′-chloro-3′-fluoro-5′-methoxy-6-methyl-(4,4′-bipyridine)-3-carboxamide], not above 200 nM. Regarding `Cc1cc(-c2cc(Cl)ncc2OC(F)F)c(C(=O)Nc2nnc(OC[C@H]3COCCO3)s2)cn1` [Example 234, (R)—N-(5-((1,4-dioxan-2-yl)methoxy)-1,3,4-thiadiazol-2-yl)-2′-chloro-5′-(difluoromethoxy)-6-methyl-(4,4′-bipyridine)-3-carboxamide], the IC50 was not above 200 nM. Consider `COc1cccc(F)c1-c1cc(C)ncc1C(=O)Nc1nnc(OCc2ccc([S@@](C)(=N)=O)cc2)s1` [Example 115, 4-(2-fluoro-6-methoxyphenyl)-6-methyl-N-(5-((4-((S)—S-methylsulfonimidoyl)benzyl)oxy)-1,3,4-thiadiazol-2-yl)nicotinamide], for which the IC50 was not above 200 nM. The value for `COc1ccc(C)cc1-c1cc(C)ncc1C(=O)Nc1nnc(OCc2cnc(CO)cn2)s1` [Example 134, N-(5-((5-(hydroxymethyl)pyrazin-2-yl)methoxy)-1,3,4-thiadiazol-2-yl)-4-(2-methoxy-5-methylphenyl)-6-methylpyridine-3-carboxamide] was not above 200 nM; that for `COc1cnc(Cl)c(F)c1-c1cc(C)ncc1C(=O)Nc1nnc(OCC2CCOC2)s1` (stereo in doubt) [Example 184, 2′-chloro-3′-fluoro-5′-methoxy-6-methyl-N-(5-(((S)-tetrahydrofuran-3-yl)methoxy)-1,3,4-thiadiazol-2-yl)-(4,4′-bipyridine)-3-carboxamide] was not above 200 nM; that for `COc1cccc(F)c1-c1cc(C)ncc1C(=O)Nc1nnc(OCc2cnc(CO)cn2)s1` [Example 97, 4-(2-fluoro-6-methoxyphenyl)-N-(5-((5-(hydroxymethyl)pyrazin-2-yl)methoxy)-1,3,4-thiadiazol-2-yl)-6-methylnicotinamide] was not above 200 nM. Turning to `COc1cnc(Cl)cc1-c1cc(C)ncc1C(=O)Nc1nnc(OCc2ccc3c(n2)CCOC3)s1` [Example 151, 2′-chloro-5′-methoxy-6-methyl-N-(5-(5H,7H,8H-pyrano(4,3-b)pyridin-2-ylmethoxy)-1,3,4-thiadiazol-2-yl)-(4,4′-bipyridine)-3-carboxamide], the IC50 is not above 200 nM. Consider `COc1cnc(Cl)cc1-c1cc(C)ncc1C(=O)Nc1nnc(OC[C@H]2CC[C@@H](O)CC2)s1` [Example 128, 2′-chloro-N-(5-(((1s,4s)-4-hydroxycyclohexyl)methoxy)-1,3,4-thiadiazol-2-yl)-5′-methoxy-6-methyl-[4,4′-bipyridine]-3-carboxamide], for which the IC50 is not above 200 nM. `COc1cnc(Cl)cc1-c1cc(C)ncc1C(=O)Nc1nnc(OCc2ccc([C@@H](C)O)cn2)s1` [Example 69, (R)-2′-chloro-N-(5-((5-(1-hydroxyethyl)pyridin-2-yl)methoxy)-1,3,4-thiadiazol-2-yl)-5′-methoxy-6-methyl-(4,4′-bipyridine)-3-carboxamide]: the concentration for half-maximal inhibition (IC50) is not above 200 nM.

In the case of `COc1cnc(C)cc1-c1cc(C)ncc1C(=O)Nc1nnc(OCc2ccc(C(=O)O)cn2)s1` [Example 90, 6-(((5-(5′-methoxy-2′,6-dimethyl-(4,4′-bipyridine)-3-amido)-1,3,4-thiadiazol-2-yl)oxy)methyl)pyridine-3-carboxylic acid], the half-maximal inhibitory concentration (IC50) was not above 200 nM. For the compound `COc1cnc(Br)cc1-c1cc(C)ncc1C(=O)Nc1nnc(OC[C@@H]2COCCO2)s1` [Example 235, (S)—N-(5-((1,4-dioxan-2-yl)methoxy)-1,3,4-thiadiazol-2-yl)-2′-bromo-5′-methoxy-6-methyl-(4,4′-bipyridine)-3-carboxamide], the half-maximal inhibitory concentration (IC50) was not above 200 nM. Turning to `COc1ccc(COc2nnc(NC(=O)c3cnc(C)cc3-c3c(F)cccc3OC)s2)nc1` [Example 20, 4-(2-fluoro-6-methoxyphenyl)-N-(5-((5-methoxypyridin-2-yl)methoxy)-1,3,4-thiadiazol-2-yl)-6-methylpyridine-3-carboxamide], the IC50 is not above 200 nM. In the case of `COc1cnc(Cl)cc1-c1cc(C)ncc1C(=O)Nc1nnc(OCc2ccc([C@H](C)O)cn2)s1` [Example 68, (S)-2′-chloro-N-(5-((5-(1-hydroxyethyl)pyridin-2-yl)methoxy)-1,3,4-thiadiazol-2-yl)-5′-methoxy-6-methyl-(4,4′-bipyridine)-3-carboxamide], the IC50 is not above 200 nM.

With `COc1ccc(COc2nnc(NC(=O)c3cnc(C)cc3-c3c(F)cccc3OC(F)F)s2)nc1` [Example 46, 4-(2-(difluoromethoxy)-6-fluorophenyl)-N-(5-((5-methoxypyridin-2-yl)methoxy)-1,3,4-thiadiazol-2-yl)-6-methylnicotinamide], the half-maximal inhibitory concentration (IC50) is not above 200 nM. The value for `COCc1cc(-c2cc(Cl)ncc2OC)c(C(=O)Nc2nnc(OC[C@@H]3COCCO3)s2)cn1` [Example 216, (S)—N-(5-((1,4-dioxan-2-yl)methoxy)-1,3,4-thiadiazol-2-yl)-2′-chloro-5′-methoxy-6-(methoxymethyl)-(4,4′-bipyridine)-3-carboxamide] was not above 200 nM; that for `COc1cccc(F)c1-c1cc(C)ncc1C(=O)Nc1nnc(OCc2ccc([C@H](C)OC)cn2)s1` [Example 93, 4-(2-fluoro-6-methoxyphenyl)-N-(5-((5-((S)-1-methoxyethyl)pyridin-2-yl)methoxy)-1,3,4-thiadiazol-2-yl)-6-methylnicotinamide] was not above 200 nM. For `COc1cnc(C)cc1-c1cc(C)ncc1C(=O)Nc1nnc(OCc2cnc(CO)cn2)s1` [Example 146, N-(5-((5-(hydroxymethyl)pyrazin-2-yl)methoxy)-1,3,4-thiadiazol-2-yl)-5′-methoxy-2′,6-dimethyl-[4,4′-bipyridine]-3-carboxamide], the IC50 was not above 200 nM. Take `COc1cnc(Cl)cc1-c1cc(C)ncc1C(=O)Nc1nnc(OC[C@@H]2CO[C@@H](CO)CO2)s1` (racemic) [Example 238, rel-2′-chloro-N-(5-(((2s,5s)-5-(hydroxymethyl)-1,4-dioxan-2-yl)methoxy)-1,3,4-thiadiazol-2-yl)-5′-methoxy-6-methyl-(4,4′-bipyridine)-3-carboxamide]: the 50% inhibitory concentration (IC50) was not above 200 nM. `COc1cnc(Cl)cc1-c1cc(C)ncc1C(=O)Nc1nnc(OCC2CNC2)s1` [Example 173, N-(5-(azetidin-3-ylmethoxy)-1,3,4-thiadiazol-2-yl)-2′-chloro-5′-methoxy-6-methyl-(4,4′-bipyridine)-3-carboxamide]: the IC50 lay within 1000 to 10000 nM. As for `COc1cnc(Cl)cc1-c1cc(C)ncc1C(=O)Nc1nnc(OC[C@@H]2COCC(C)(C)O2)s1` (single isomer, unassigned) [Example 220], the half-maximal inhibitory concentration (IC50) is not above 200 nM. `COc1cnc(Cl)cc1-c1cc(C)ncc1C(=O)Nc1nnc(OC[C@H]2CCO[C@@H]2C)s1` (single isomer, unassigned) [Example 182]: the half-inhibitory concentration (IC50) is not above 200 nM.

For the compound `COc1cnc(Cl)cc1-c1cc(C)ncc1C(=O)Nc1nnc(OCC2COC(CO)CO2)s1` (centres unmarked) [Example 246, 2′-chloro-N-(5-((5-(hydroxymethyl)-1,4-dioxan-2-yl)methoxy)-1,3,4-thiadiazol-2-yl)-5′-methoxy-6-methyl-(4,4′-bipyridine)-3-carboxamide], the IC50 is not above 200 nM.

Take `CN=[S@](C)(=O)c1ccc(COc2nnc(NC(=O)c3cnc(C)cc3-c3c(F)cccc3OC)s2)cc1` [Example 154, N-(5-((4-((R)—N,S-dimethylsulfonimidoyl)benzyl)oxy)-1,3,4-thiadiazol-2-yl)-4-(2-fluoro-6-methoxyphenyl)-6-methylnicotinamide]: the IC50 was not above 200 nM. The value for `COc1cnc(Cl)cc1-c1cc(C)ncc1C(=O)Nc1nnc(OCC2CC3(CC(O)C3)C2)s1` (centres unmarked) [Example 138, 2′-chloro-N-(5-((6-hydroxyspiro[3.3]heptan-2-yl)methoxy)-1,3,4-thiadiazol-2-yl)-5′-methoxy-6-methyl-[4,4′-bipyridine]-3-carboxamide] was not above 200 nM. As to `COc1cnc(Cl)cc1-c1cc(C)ncc1C(=O)Nc1nnc(OC[C@@H]2CO[C@H](CO)CO2)s1` (racemic) [Example 237, rel-2′-chloro-N-(5-(((2s,5r)-5-(hydroxymethyl)-1,4-dioxan-2-yl)methoxy)-1,3,4-thiadiazol-2-yl)-5′-methoxy-6-methyl-(4,4′-bipyridine)-3-carboxamide], the IC50 is not above 200 nM. Turning to `COc1cnc(Cl)cc1-c1cc(C)ncc1C(=O)Nc1nnc(OCC2CC3CC2CN3C(=O)C(C)C)s1` (centres unmarked) [Example 156, 2′-chloro-N-(5-((2-isobutyryl-2-azabicyclo[2.2.1]heptan-5-yl)methoxy)-1,3,4-thiadiazol-2-yl)-5′-methoxy-6-methyl-[4,4′-bipyridine]-3-carboxamide], the IC50 is not above 200 nM.

For orientation: IC50 means the midpoint of a concentration-inhibition curve.
